Reference: patent US20230085307A1, “PYRIDAZINONE COMPOUND AND HERBICIDE” (NISSAN CHEMICAL CORPORATION, priority 2019, published 2023)

Key:
late watergrass = test: Test Example 2: herbicidal activity, application during weed generation under submerged conditions (Table 17, symbol A); assay type: in vivo, late watergrass (Echinochloa oryzicola); conditions: AAH 320 g/ha; application during weed generation, submerged conditions
Method in brief: (§1)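 Wagner pot, alluvial soil, 4 cm flood; mixed sowing of all species; greenhouse 25° C.–30° C. Emulsifiable formulation, water-diluted to predetermined dose, applied to paddy water at 1–2 leaf stage. Effect rated at 3 wk using the earlier test's scoring criteria.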

Japanese bulrush = test: Test Example 2: herbicidal activity, application during weed generation under submerged conditions (Table 17, symbol B); assay type: in vivo, Japanese bulrush (Schoenoplectus juncoides); conditions: AAH 320 g/ha; application during weed generation, submerged conditions
Method in brief: as §1

oval-leafed pondweed = test: Test Example 2: herbicidal activity, application during weed generation under submerged conditions (Table 17, symbol C); assay type: in vivo, oval-leafed pondweed (Monochoria vaginalis); conditions: AAH 320 g/ha; application during weed generation, submerged conditions
Method in brief: as §1

barnyard grass [1] = test: Test Example 3: herbicidal effect by foliage application, Wagner pot (Table 18, symbol H); assay type: in vivo, barnyard grass (Echinochloa crus-galli); conditions: 320 g/ha
Method in brief: (§2)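 Plants were sown in alluvial soil held under 0.1–0.5 cm standing water and grown 14 days in a greenhouse at 25–30 °C. An emulsifiable formulation, water-diluted to the set dose, was then sprayed onto the foliage, and effects were scored three weeks later using previously defined criteria.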

Chinese sprangletop = test: Test Example 3: herbicidal effect by foliage application, Wagner pot (Table 18, symbol D); assay type: in vivo, chinese sprangletop (Leptochloa chinensis); conditions: 320 g/ha
Method in brief: as §2

rice flat sedge = test: Test Example 3: herbicidal effect by foliage application, Wagner pot (Table 18, symbol E); assay type: in vivo, rice flat sedge (Cyperus iria); conditions: 320 g/ha
Method in brief: as §2

southern crabgrass [2] = test: Test Example 4: herbicidal effect by soil treatment (Table 19, symbol F); assay type: in vivo, southern crabgrass (Digitaria ciliaris); conditions: amount of applied herbicide 320 g/ha
Method in brief: (§3)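 Herbicidal effect was rated 3 weeks after treatment, using the scoring criteria of an earlier test. The compound, formulated as an emulsion and diluted in water to a set herbicide amount, had been sprayed uniformly on soil over freshly sown seeds. Growth took place in a greenhouse at 25° C. to 30° C.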

green foxtail [3] = test: Test Example 4: herbicidal effect by soil treatment (Table 19, symbol G); assay type: in vivo, green foxtail (Setaria viridis); conditions: amount of applied herbicide 320 g/ha
Method in brief: as §3

barnyard grass [4] = test: Test Example 4: herbicidal effect by soil treatment (Table 19, symbol H); assay type: in vivo, barnyard grass (Echinochloa crus-galli); conditions: amount of applied herbicide 320 g/ha
Method in brief: as §3

wild oat [5] = test: Test Example 4: herbicidal effect by soil treatment (Table 19, symbol I); assay type: in vivo, wild oat (Avena fatua); conditions: amount of applied herbicide 320 g/ha
Method in brief: as §3

blackgrass [6] = test: Test Example 4: herbicidal effect by soil treatment (Table 19, symbol J); assay type: in vivo, blackgrass (Alopecurus myosuroides); conditions: amount of applied herbicide 320 g/ha
Method in brief: as §3

Italian ryegrass [7] = test: Test Example 4: herbicidal effect by soil treatment (Table 19, symbol K); assay type: in vivo, Italian ryegrass (Lolium multiflorum); conditions: amount of applied herbicide 320 g/ha
Method in brief: as §3

windgrass [8] = test: Test Example 4: herbicidal effect by soil treatment (Table 19, symbol L); assay type: in vivo, windgrass (Apera spica-venti); conditions: amount of applied herbicide 320 g/ha
Method in brief: as §3

velvetleaf [9] = test: Test Example 4: herbicidal effect by soil treatment (Table 19, symbol M); assay type: in vivo, velvetleaf (Abutilon theophrasti); conditions: amount of applied herbicide 320 g/ha
Method in brief: as §3

redroot pigweed [10] = test: Test Example 4: herbicidal effect by soil treatment (Table 19, symbol N); assay type: in vivo, redroot pigweed (Amaranthus retroflexus); conditions: amount of applied herbicide 320 g/ha
Method in brief: as §3

lambsquarters [11] = test: Test Example 4: herbicidal effect by soil treatment (Table 19, symbol O); assay type: in vivo, lambsquarters (Chenopodium album); conditions: amount of applied herbicide 320 g/ha
Method in brief: as §3

chickweed [12] = test: Test Example 4: herbicidal effect by soil treatment (Table 19, symbol P); assay type: in vivo, common chickweed (Stellaria media); conditions: amount of applied herbicide 320 g/ha
Method in brief: as §3

false cleavers [13] = test: Test Example 4: herbicidal effect by soil treatment (Table 19, symbol Q); assay type: in vivo, false cleavers (Galium spurium); conditions: amount of applied herbicide 320 g/ha
Method in brief: as §3

persian speedwell [14] = test: Test Example 4: herbicidal effect by soil treatment (Table 19, symbol R); assay type: in vivo, Persian speedwell (Veronica persica); conditions: amount of applied herbicide 320 g/ha
Method in brief: as §3

southern crabgrass [15] = test: Test Example 5: herbicidal effect by foliage application, plastic box (Table 20, symbol F); assay type: in vivo, southern crabgrass (Digitaria ciliaris); conditions: foliage application, 320 g/ha, three weeks after application
Method in brief: (§4)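 Foliar spray test: emulsion formulation diluted in water to a set application rate, sprayed onto 14-day-old plants raised in diluvial soil at 25° C to 30° C under glass. Both herbicidal effect and crop effect rated visually three weeks later.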

green foxtail [16] = test: Test Example 5: herbicidal effect by foliage application, plastic box (Table 20, symbol G); assay type: in vivo, green foxtail (Setaria viridis); conditions: foliage application, 320 g/ha, three weeks after application
Method in brief: as §4

barnyard grass [17] = test: Test Example 5: herbicidal effect by foliage application, plastic box (Table 20, symbol H); assay type: in vivo, barnyard grass (Echinochloa crus-galli); conditions: foliage application, 320 g/ha, three weeks after application
Method in brief: as §4

wild oat [18] = test: Test Example 5: herbicidal effect by foliage application, plastic box (Table 20, symbol I); assay type: in vivo, wild oat (Avena fatua); conditions: foliage application, 320 g/ha, three weeks after application
Method in brief: as §4

blackgrass [19] = test: Test Example 5: herbicidal effect by foliage application, plastic box (Table 20, symbol J); assay type: in vivo, blackgrass (Alopecurus myosuroides); conditions: foliage application, 320 g/ha, three weeks after application
Method in brief: as §4

Italian ryegrass [20] = test: Test Example 5: herbicidal effect by foliage application, plastic box (Table 20, symbol K); assay type: in vivo, Italian ryegrass (Lolium multiflorum); conditions: foliage application, 320 g/ha, three weeks after application
Method in brief: as §4

windgrass [21] = test: Test Example 5: herbicidal effect by foliage application, plastic box (Table 20, symbol L); assay type: in vivo, windgrass (Apera spica-venti); conditions: foliage application, 320 g/ha, three weeks after application
Method in brief: as §4

velvetleaf [22] = test: Test Example 5: herbicidal effect by foliage application, plastic box (Table 20, symbol M); assay type: in vivo, velvetleaf (Abutilon theophrasti); conditions: foliage application, 320 g/ha, three weeks after application
Method in brief: as §4

redroot pigweed [23] = test: Test Example 5: herbicidal effect by foliage application, plastic box (Table 20, symbol N); assay type: in vivo, redroot pigweed (Amaranthus retroflexus); conditions: foliage application, 320 g/ha, three weeks after application
Method in brief: as §4

lambsquarters [24] = test: Test Example 5: herbicidal effect by foliage application, plastic box (Table 20, symbol O); assay type: in vivo, lambsquarters (Chenopodium album); conditions: foliage application, 320 g/ha, three weeks after application
Method in brief: as §4

chickweed [25] = test: Test Example 5: herbicidal effect by foliage application, plastic box (Table 20, symbol P); assay type: in vivo, common chickweed (Stellaria media); conditions: foliage application, 320 g/ha, three weeks after application
Method in brief: as §4

false cleavers [26] = test: Test Example 5: herbicidal effect by foliage application, plastic box (Table 20, symbol Q); assay type: in vivo, false cleavers (Galium spurium); conditions: foliage application, 320 g/ha, three weeks after application
Method in brief: as §4

persian speedwell [27] = test: Test Example 5: herbicidal effect by foliage application, plastic box (Table 20, symbol R); assay type: in vivo, Persian speedwell (Veronica persica); conditions: foliage application, 320 g/ha, three weeks after application
Method in brief: as §4

CCCC(=O)Oc1c(C)nn(C)c(=O)c1-c1c(-c2ccc3c(c2)OCO3)sc2ccccc12 [1-088]
herbicidal effect rating, A: late watergrass (late watergrass): 1 (Herbicidal rate of 5% or more and less than 20%) | herbicidal effect rating, B: Japanese bulrush (Japanese bulrush): 3 (Herbicidal rate of 40% or more and less than 70%) | herbicidal effect rating, C: oval-leafed pondweed (oval-leafed pondweed): 4 (Herbicidal rate of 70% or more and less than 90%) | herbicidal effect on H (barnyard grass), rating 0-5 (barnyard grass [1]): 5 (Herbicidal rate of 90% or more (almost completely withered)) | herbicidal effect on D (Chinese sprangletop), rating 0-5 (Chinese sprangletop): 3 (Herbicidal rate of 40% or more and less than 70%) | herbicidal effect on E (rice flat sedge), rating 0-5 (rice flat sedge): 5 (Herbicidal rate of 90% or more (almost completely withered)) | herbicidal effect rating, F: southern crabgrass (southern crabgrass [2]): 3 (Herbicidal rate of 40% or more and less than 70%) | herbicidal effect rating, G: green foxtail (green foxtail [3]): 4 (Herbicidal rate of 70% or more and less than 90%) | herbicidal effect rating, H: barnyard grass (barnyard grass [4]): 4 (Herbicidal rate of 70% or more and less than 90%) | herbicidal effect rating, I: wild oat (wild oat [5]): 0 (Herbicidal rate of 5% or less (almost no effect)) | herbicidal effect rating, J: blackgrass (blackgrass [6]): 0 (Herbicidal rate of 5% or less (almost no effect)) | herbicidal effect rating, K: Italian ryegrass (Italian ryegrass [7]): 1 (Herbicidal rate of 5% or more and less than 20%) | herbicidal effect rating, L: windgrass (windgrass [8]): 0 (Herbicidal rate of 5% or less (almost no effect)) | herbicidal effect rating, M: velvetleaf (velvetleaf [9]): 0 (Herbicidal rate of 5% or less (almost no effect)) | herbicidal effect rating, N: redroot pigweed (redroot pigweed [10]): 0 (Herbicidal rate of 5% or less (almost no effect)) | herbicidal effect rating, O: lambsquarters (lambsquarters [11]): 3 (Herbicidal rate of 40% or more and less than 70%) | herbicidal effect rating, P: chickweed (chickweed [12]): 4 (Herbicidal rate of 70% or more and less than 90%) | herbicidal effect rating, Q: false cleavers (false cleavers [13]): 0 (Herbicidal rate of 5% or less (almost no effect)) | herbicidal effect rating, R: persian speedwell (persian speedwell [14]): 5 (Herbicidal rate of 90% or more (almost completely withered)) | herbicidal effect grade, F: southern crabgrass (southern crabgrass [15]): 3 (Herbicidal rate of 40% or more and less than 70%) | herbicidal effect grade, G: green foxtail (green foxtail [16]): 4 (Herbicidal rate of 70% or more and less than 90%) | herbicidal effect grade, H: barnyard grass (barnyard grass [17]): 3 (Herbicidal rate of 40% or more and less than 70%) | herbicidal effect grade, I: wild oat (wild oat [18]): 0 (Herbicidal rate of 5% or less (almost no effect)) | herbicidal effect grade, J: blackgrass (blackgrass [19]): 0 (Herbicidal rate of 5% or less (almost no effect)) | herbicidal effect grade, K: Italian ryegrass (Italian ryegrass [20]): 3 (Herbicidal rate of 40% or more and less than 70%) | herbicidal effect grade, L: windgrass (windgrass [21]): 0 (Herbicidal rate of 5% or less (almost no effect)) | herbicidal effect grade, M: velvetleaf (velvetleaf [22]): 5 (Herbicidal rate of 90% or more (almost completely withered)) | herbicidal effect grade, N: redroot pigweed (redroot pigweed [23]): 3 (Herbicidal rate of 40% or more and less than 70%) | herbicidal effect grade, O: lambsquarters (lambsquarters [24]): 3 (Herbicidal rate of 40% or more and less than 70%) | herbicidal effect grade, P: chickweed (chickweed [25]): 5 (Herbicidal rate of 90% or more (almost completely withered)) | herbicidal effect grade, Q: false cleavers (false cleavers [26]): 0 (Herbicidal rate of 5% or less (almost no effect)) | herbicidal effect grade, R: persian speedwell (persian speedwell [27]): 5 (Herbicidal rate of 90% or more (almost completely withered))
